Tested on: MS2 DNA sequence
Assay: DNA footprinting study against the MS2 DNA sequence
Assay type: binding, bacteriophage
Conditions: cleavage pattern on electrophoresis gel
Method: In order to assess the binding of test compounds to DNA, a footprinting study against the MS2 DNA sequence was carried out. The sequence is as follows:
and is derived from a bacteriophage.
The footprinting technique in the context of DNA allows the determination of binding sites for drugs or biological macromolecules. It relies on the fact that DNA is cleaved relatively non-specifically by free radicals (e.g. hydroxyl radical footprinting) or enzymes (e.g. DNase I footprinting). Thus if DNA is 32p end labelled on one strand (so that it may be observed autoradiographically) and exposed to the cleavage agent for a certain time, then a laddering pattern may be seen when the resulting fragments are separated by gel electrophoresis (separation on the basis of size). If a compound which binds to DNA is added prior to the cleavage agent then this hinders access of the enzyme or radical to the DNA and blocks cleavage at the molecule binding site. Thus if the compound binds discretely then a specific cleavage block should be seen on the gel relative to the DNA not treated with compound, which is termed the ‘footprint’. (see FIG. 1)

## CCOC(=O)c1csc(-c2ccc(NC(=O)c3csc(-c4ccc(NC(=O)CCCN(C)C)cc4)n3)cc2)n1 [Compound 9, Ethyl 2-[4-({2-[4-(4-dimethylaminobutyrylamino)phenyl]thiazole-4-carbonyl}amino)phenyl]thiazole-4-carboxylate]
  coating event: no clear coating event
  specific footprinting activity: no specific footprinting activity

From patent US20070249591A1, “Biaryl Amino Acids and Their Use in Dna Binding Oligomers” (Spirogen Limited, priority 2004, published 2007)
